Measurements from ChEMBL document CHEMBL4371069, “Click chemistry for improvement in selectivity of quinazoline-based kinase inhibitors for mutant epidermal growth factor receptors” (Bioorg Med Chem Lett, 2019).

What was measured:
[1] = Safety index, ratio of compound IC50 to afatinib IC50 for antiproliferative activity against HER2-dependant human SKBR3 cells; format: cell-based; conditions: SK-BR-3 cells (HER2-dependent), read-out: Ratio IC50
SK-BR-3 = assay: Antiproliferative activity against HER2-dependant human SKBR3 cells after 72 hrs by EZ-Cytox assay; format: ADME, cell-based; conditions: SK-BR-3, 72 h
CYP1A2 = molecular target: T1, CYP1A2 (Homo sapiens, UniProt P05177); assay: Inhibition of CYP1A2 in human liver microsomes assessed as residual activity at 10 uM using phenacetin as substrate preincubated for 5 mins followed by NADPH addition and measured after 15 mins by LC-MS/MS analysis relative to control; format: ADME; conditions: probe phenacetin, read-out: Activity
T1 sequence (P05177 whole entry): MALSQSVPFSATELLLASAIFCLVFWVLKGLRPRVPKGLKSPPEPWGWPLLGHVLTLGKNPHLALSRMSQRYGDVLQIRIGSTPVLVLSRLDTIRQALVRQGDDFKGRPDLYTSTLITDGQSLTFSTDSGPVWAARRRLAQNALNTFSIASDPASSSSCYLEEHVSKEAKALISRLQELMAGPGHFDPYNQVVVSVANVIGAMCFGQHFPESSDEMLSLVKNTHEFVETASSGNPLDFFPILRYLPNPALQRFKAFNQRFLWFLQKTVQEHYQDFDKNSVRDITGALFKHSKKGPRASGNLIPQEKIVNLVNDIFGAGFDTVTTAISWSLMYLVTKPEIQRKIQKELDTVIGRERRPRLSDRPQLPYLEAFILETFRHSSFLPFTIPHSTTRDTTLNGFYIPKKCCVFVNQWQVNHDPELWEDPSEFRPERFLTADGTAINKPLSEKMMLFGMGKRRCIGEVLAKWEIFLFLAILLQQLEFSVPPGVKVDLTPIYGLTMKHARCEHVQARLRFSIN

hERG (KCNH2) = hERG (KCNH2) (Homo sapiens, UniProt Q12809); assay: Inhibition of human ERG expressed in HEK cell at 10 uM at -70 mV holding potential by patch clamp method relative to control; conditions: HEK cells that express hERG
Chain of hERG (KCNH2) (Q12809 whole entry): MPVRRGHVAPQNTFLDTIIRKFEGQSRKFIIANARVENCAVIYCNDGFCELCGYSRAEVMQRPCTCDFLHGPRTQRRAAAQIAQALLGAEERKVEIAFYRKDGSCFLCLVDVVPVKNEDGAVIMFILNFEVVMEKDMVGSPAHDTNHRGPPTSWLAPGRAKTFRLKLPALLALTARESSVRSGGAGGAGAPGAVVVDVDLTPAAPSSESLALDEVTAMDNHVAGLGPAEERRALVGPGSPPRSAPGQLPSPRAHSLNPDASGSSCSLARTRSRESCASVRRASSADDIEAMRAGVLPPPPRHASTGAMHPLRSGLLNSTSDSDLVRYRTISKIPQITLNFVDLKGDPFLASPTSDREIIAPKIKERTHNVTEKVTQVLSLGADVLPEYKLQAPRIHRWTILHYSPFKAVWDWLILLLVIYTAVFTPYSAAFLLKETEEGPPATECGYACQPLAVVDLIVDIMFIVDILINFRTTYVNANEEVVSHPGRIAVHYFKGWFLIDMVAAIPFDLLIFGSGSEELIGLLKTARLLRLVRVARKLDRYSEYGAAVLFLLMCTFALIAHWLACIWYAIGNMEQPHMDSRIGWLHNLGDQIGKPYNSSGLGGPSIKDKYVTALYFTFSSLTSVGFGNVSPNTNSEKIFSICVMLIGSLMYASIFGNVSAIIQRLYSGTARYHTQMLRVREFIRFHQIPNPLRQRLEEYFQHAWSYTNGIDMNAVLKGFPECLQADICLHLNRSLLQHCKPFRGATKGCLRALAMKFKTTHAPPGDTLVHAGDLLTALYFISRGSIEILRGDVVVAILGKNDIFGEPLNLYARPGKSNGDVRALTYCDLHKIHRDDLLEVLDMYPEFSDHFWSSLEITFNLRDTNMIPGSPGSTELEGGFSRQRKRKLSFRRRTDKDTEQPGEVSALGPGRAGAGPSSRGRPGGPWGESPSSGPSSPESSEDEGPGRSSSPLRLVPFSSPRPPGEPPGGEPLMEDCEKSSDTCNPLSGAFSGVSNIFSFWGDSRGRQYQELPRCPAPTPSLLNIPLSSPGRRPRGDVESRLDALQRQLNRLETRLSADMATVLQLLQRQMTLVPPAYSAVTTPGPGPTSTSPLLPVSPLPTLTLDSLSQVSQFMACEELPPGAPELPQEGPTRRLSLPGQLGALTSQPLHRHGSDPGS

CYP2E1 = CYP2E1 (Homo sapiens, UniProt P05181); assay: Inhibition of CYP2E1 in human liver microsomes assessed as residual activity at 10 uM using chlorzoxazone as substrate preincubated for 5 mins followed by NADPH addition and measured after 15 mins by LC-MS/MS analysis relative to control; format: ADME; conditions: probe chlorzoxazone, read-out: Activity
Chain of CYP2E1 (P05181 whole entry): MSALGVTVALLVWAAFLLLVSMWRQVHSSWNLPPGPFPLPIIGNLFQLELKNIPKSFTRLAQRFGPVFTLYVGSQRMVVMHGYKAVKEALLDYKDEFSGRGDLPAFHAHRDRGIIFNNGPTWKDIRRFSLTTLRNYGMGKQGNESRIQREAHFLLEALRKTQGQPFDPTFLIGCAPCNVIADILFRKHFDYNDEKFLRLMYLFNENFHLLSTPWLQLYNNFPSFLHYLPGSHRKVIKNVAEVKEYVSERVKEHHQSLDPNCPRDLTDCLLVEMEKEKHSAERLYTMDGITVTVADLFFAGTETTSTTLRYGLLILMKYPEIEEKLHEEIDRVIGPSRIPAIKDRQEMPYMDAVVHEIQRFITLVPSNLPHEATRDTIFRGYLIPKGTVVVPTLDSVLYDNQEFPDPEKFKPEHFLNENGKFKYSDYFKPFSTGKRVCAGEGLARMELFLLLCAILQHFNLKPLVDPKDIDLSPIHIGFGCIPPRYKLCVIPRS

CYP2D6 = CYP2D6 (Homo sapiens, UniProt P10635); assay: Inhibition of CYP2D6 in human liver microsomes assessed as residual activity at 10 uM using dextromethorphan as substrate preincubated for 5 mins followed by NADPH addition and measured after 15 mins by LC-MS/MS analysis relative to control; format: ADME; conditions: probe dextromethorphan, read-out: Activity
Chain of CYP2D6 (P10635 whole entry): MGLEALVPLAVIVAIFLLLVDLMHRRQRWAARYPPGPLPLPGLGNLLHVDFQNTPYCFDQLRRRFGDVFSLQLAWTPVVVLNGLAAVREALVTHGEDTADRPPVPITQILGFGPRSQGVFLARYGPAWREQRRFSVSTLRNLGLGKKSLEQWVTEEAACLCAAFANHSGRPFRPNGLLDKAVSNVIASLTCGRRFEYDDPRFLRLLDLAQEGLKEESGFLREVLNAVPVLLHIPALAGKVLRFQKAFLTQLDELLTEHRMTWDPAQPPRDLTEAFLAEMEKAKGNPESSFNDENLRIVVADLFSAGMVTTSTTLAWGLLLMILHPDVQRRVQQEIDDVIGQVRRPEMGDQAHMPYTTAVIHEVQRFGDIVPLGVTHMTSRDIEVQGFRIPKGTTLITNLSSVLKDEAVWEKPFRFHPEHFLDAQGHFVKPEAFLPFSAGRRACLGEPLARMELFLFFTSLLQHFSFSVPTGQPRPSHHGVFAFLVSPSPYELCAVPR

PC-9 = assay: Potency index, ratio of gefitinib IC50 to compound IC50 for antiproliferative activity against human PC9 cells harboring EGFR exon-19 del mutant; format: functional
[2] = Selectivity index, ratio of IC50 for human C-terminal His6-tagged ERBB2 (676 to end residues) expressed in baculovirus infected sf21 cells to IC50 for human N-terminal GST-tagged EGFR T790M/L858R double mutant (696 to end residues) expressed in baculovirus infected sf21 cells
[3] = Selectivity index, ratio of IC50 for human N-terminal GST-tagged EGFR kinase domain (696 to end residues) expressed in baculovirus infected sf21 cells to IC50 for human N-terminal GST-tagged EGFR T790M/L858R double mutant (696 to end residues) expressed in baculovirus infected sf21 cells
[4] = test system: Epidermal growth factor receptor (Homo sapiens), P00533 [L858R,T790M]; assay: Potency index, ratio of afatinib IC50 to compound IC50 for inhibition of human N-terminal GST-tagged EGFR T790M/L858R double mutant (696 to end residues) expressed in baculovirus infected sf21 cells

C=CC(=O)Nc1cc2c(Nc3ccc(F)c(Cl)c3)ncnc2cc1OCc1cn(Cc2ccc(Cl)cc2)nn1
selectivity ratio [1]: > 95 | IC50 (SK-BR-3): 266 nM | activity at 0.25 h, 10 µM (CYP1A2): 60.8% | inhibition at 10 µM (hERG (KCNH2)): 33.6% | activity at 0.25 h, 10 µM (CYP2E1): 63.4% | activity at 0.25 h, 10 µM (CYP2D6): 24.4%

C=CC(=O)Nc1cc2c(Nc3ccc(F)c(Cl)c3)ncnc2cc1OCc1cn(Cc2cccc(F)c2)nn1
selectivity ratio [1]: > 95 | IC50 (SK-BR-3): 115 nM | Ratio IC50 (PC-9): 6.7 | activity at 0.25 h, 10 µM (CYP1A2): 52.5% | Ratio IC50 [2]: 52 | Ratio IC50 [3]: 17 | inhibition at 10 µM (hERG (KCNH2)): 20.7% | activity at 0.25 h, 10 µM (CYP2E1): 59% | Ratio IC50 [4]: 3.5 | activity at 0.25 h, 10 µM (CYP2D6): 14.9%

C=CC(=O)Nc1cc2c(Nc3ccc(F)c(Cl)c3)ncnc2cc1OCc1cn(Cc2ccc(F)cc2)nn1
selectivity ratio [1]: > 95 | IC50 (SK-BR-3): 143 nM | activity at 0.25 h, 10 µM (CYP1A2): 51.1% | inhibition at 10 µM (hERG (KCNH2)): 46.2% | activity at 0.25 h, 10 µM (CYP2E1): 60.9% | activity at 0.25 h, 10 µM (CYP2D6): 12.2%
